# Assay results as given in patent US20240216395A1, “19-NOR C3,3-DISUBSTITUTED C21 -N-PYRAZOLYL STEROID FOR USE IN TREATING MAJOR DEPRESSIVE DISORDER AND […]” (priority 2021, published 2024).
# Where two headings read alike, the source gives them in different places.
# How the values were obtained:
# [1] = system: patients with MDD; experiment: Phase 3 clinical trial of Compound (1) 30 mg in MDD : TEAEs; assay type: in vivo, human; details: previous Phase 3 clinical trial
# Text: The study design and results, if applicable, of the clinical trials identified by the NCT numbers are each incorporated by reference herein in its entirety.
# The majority of patients receiving Compound (1) and experiencing a TEAE reported TEAEs mild and moderate in severity: clinical trial of Example 4 94%, Phase 2 clinical trial conducted by Applicant 100%, previous Phase 3 clinical trial conducted by Applicant 98%, and clinical trial of Example 1 95.0%.
# [2] = Abuse potential main study: plasma pharmacokinetics after a single oral dose; assay type: in vivo, human; details: for Tmax / half-life / AUC(0-t) / Cmax: human, plasma
# Procedure: Safety and tolerability endpoints included the frequency and severity of AEs and SAEs, the change from baseline in clinical laboratory assessments, vital signs, and ECG, and suicidality assessed by the Columbia-Suicide Severity Rating Scale (C-SSRS).
# During the treatment phase, PK measures were assessed predose and at multiple time points, from 0.5 to 24 hours after dosing. Blood samples collected for plasma analyses were kept frozen (approximately −70° C. to −80° C.) until analysis. The quantification of the Compound (1) plasma concentration was performed by a bioanalytical laboratory (PRA Health Sciences, Lenexa, Kansas) using a validated liquid chromatography with a tandem mass spectroscopic method. The validated range of the assay was 1.00 to 500 ng/ml.
# All PK analyses were based on the PK analysis set. Descriptive statistics included sample size, arithmetic mean, standard deviation, arithmetic coefficient of variation (CV), first quartile, median, and the minimum and maximum values […]. For summary statistics, PK concentration values below the limit of quantification were treated as zero. For calculating PK parameters, PK concentration values of zero that occurred prior to or after the first quantifiable concentration were imputed as zero or missing, respectively. The Compound (1) plasma PK parameters were estimated for each participant using noncompartmental analysis (Phoenix® WinNonlin® version 8.0 or later). The estimation of the terminal-elimination rate constant (λz) and λz-derived PK parameters were dependent upon inspection of PK data and a minimum of three time points in the terminal phase with adjusted R2 ≥0.8.
# [3] = system: synaptic and extrasynaptic GABAA receptors; details: in vitro; cited from earlier work
structure (smiles),measurement,setting,value
"C[C@@]1(O)CC[C@H]2[C@H](CC[C@@H]3[C@@H]2CC[C@]2(C)[C@@H](C(=O)Cn4cc(C#N)cn4)CC[C@@H]32)C1 [Compound (1), 1-(2-((3R,5R,8R,9R,10S,13S,14S,17S)-3-hydroxy-3,13-dimethylhexadecahydro-1H-cyclopenta[a]phenanthren-17-yl)-2-oxoethyl)-1H-pyrazole-4-carbonitrile]",Patients with a TEAE whose TEAEs were mild and moderate in severity,[1],98%
same,"AUC0-24, geometric mean",[2]; 60 mg single oral dose,0.982 µg·h/mL
same,"T½ values, range over doses","[2]; 30, 60, 90 mg, capsule",10 to 11 h
same,Tmax,"[2]; oral, 90 mg, 30, 60, 90 mg, capsule, read-out: Tmax (median), all three doses",5.1 h
same,half-life,"[2]; oral, 90 mg, 30, 60, 90 mg, capsule, read-out: T½ values, range over doses",9.92 to 10.9 h
same,AUC(0-t),"[2]; oral, 30, 60, 90 mg, read-out: AUC0-24 values, range over doses",0.52 to 1.33 µg·h/mL
same,Cmax,"[2]; oral, 30, 60, 90 mg, read-out: Cmax geometric mean values, range over doses",0.0555 to 0.123 µg/mL
same,half-life,"[2]; po, 30 mg, 30 mg single oral dose (n = 66), read-out: T½, geometric mean (converted)",10.1 h
same,Tmax,"[2]; po, 30 mg, 30 mg single oral dose, read-out: Tmax, median",5.1 h
same,half-life,"[2]; po, 60 mg, 60 mg single oral dose (n = 60), read-out: T½, geometric mean (converted)",9.9 h
same,Tmax,"[2]; po, 60 mg, 60 mg single oral dose, read-out: Tmax, median",5.1 h
same,half-life,"[2]; po, 90 mg, 90 mg single oral dose (n = 62), read-out: T½, geometric mean (converted)",10.9 h
same,Tmax,"[2]; po, 90 mg, 90 mg single oral dose, read-out: Tmax, median",5.1 h
same,Cmax,"[2]; 30 mg single oral dose (n = 65), read-out: Cmax, geometric mean",0.0555 µg/mL
same,AUC(0-t),"[2]; 30 mg single oral dose, read-out: AUC0-24, geometric mean",0.52 µg·h/mL
same,Cmax,"[2]; 60 mg single oral dose (n = 66), read-out: Cmax, geometric mean",0.0976 µg/mL
same,Cmax,"[2]; 90 mg single oral dose (n = 67), read-out: Cmax, geometric mean",0.123 µg/mL
same,AUC(0-t),"[2]; 90 mg single oral dose, read-out: AUC0-24, geometric mean",1.33 µg·h/mL
same,GABAA receptor binding and current potentiation,[3],"bind to both synaptic and extrasynaptic GABAA receptors, potentiating both phasic and tonic currents"
